Laboratory results published in patent US20190192613A1, “COMPOSITION FOR PREVENTING OR TREATING HYPEROXIA-INDUCED LUNG INJURY COMPRISING WKYMVM PEPTIDE AS AN ACTIVE INGREDIENT” (SAMSUNG LIFE PUBLIC WELFARE FOUNDATION, priority 2017, published 2019).

Legend:
[1] = Animal death during the hyperoxia experiment; type: in vivo, mouse; details: neonatal mice, i.p. every day P5 to P8, entire experiment
Method: Pregnant C57/BL6 wild-type mice (National Experimental Animal Center, Pocheon, Korea) were raised in individual cages by offering a free access to water and food to each mouse, the mice spontaneously gave birth to babies, and then the offsprings were grown in a chamber under hyperoxia (80% O2) conditions (P) or normal oxygen (21% O2) conditions by day 14. At this time, environmental humidity and temperature were maintained at 50% and 24° C., and to investigate the effect of activated FPR2, WKYMVm (SEQ ID NO: 1) or physiological saline (vehicle, 20 μl) was intraperitoneally administered to each mouse every day from P5 to P8. In this case, death of the animals was not observed throughout the entire experimental processes.

[2] = test system: bronchopulmonary dysplasia in neonatal mice; details: Martin et al. 2014; cited from earlier work

SMILES | death of the animals [1] | alveolar damage caused by bronchopulmonary dysplasia [2]
CSCC[C@H](NC(=O)[C@H](Cc1ccc(O)cc1)NC(=O)[C@H](CCCCN)NC(=O)[C@@H](N)Cc1c[nH]c2ccccc12)C(=O)N[C@H](C(=O)N[C@H](CCSC)C(=O)O)C(C)C [WKYMVm, Trp-Lys-Tyr-Met-Val-D-Met] | not observed | 
CCCCC[C@H](O)/C=C/C=C\C=C\C=C\[C@@H](O)[C@@H](O)CCCC(=O)O [lipoxin A4] |  | improve alveolar damage
CC/C=C\C[C@H](O)/C=C/C=C\C=C\C=C\[C@@H](O)[C@@H](O)C/C=C\CCC(=O)O [resolvin D1] |  | improve alveolar damage
